# According to publication PMC8143647, “Proteomics of Galápagos Marine Iguanas Links Function of Femoral Gland Proteins to the Immune System” (Molecular & Cellular Proteomics : MCP, 2020):
# Key:
# Bacillus subtilis = assay: Antimicrobial activity, relative growth inhibition in broth microdilution (Gram-pos.); format: cell-based; set-up: key to Activity against Gram-pos.: ++: highly active (comparable to oncocin); +: moderately active; +/-: moderately active without clear dose dependency; -: no activity; settings: for Activity against Gram-pos.: Bacillus subtilis in Miller-Hinton broth, inoculum 1-2 x 10^7 cfu/ml, 100 µl + 20 µl test substance, 2n dilution series from 1 mg/ml down to 31 µg/ml, 18-24 h 37 °C, photometer 600 nm, duplicates
# Experimental: (§1) Test strains of Bacillus subtilis, Escherichia coli K12 or Escherichia coli BL21 were grown in Miller-Hinton broth (MHB) for 18–20 h at 37 °C with moderate shaking. An inoculum of 1–2 × 10^7 cfu/ml was prepared in fresh MHB and 100 µl of the suspension was pipetted into microtiter plate wells together with 20 µl test substance. Test substances were measured in duplicates. The plates were covered by a plastic seal to prevent evaporation and incubated for further 18–24 h at 37 °C with moderate shaking. The test substances were dissolved in water at a concentration of 1 mg/ml and a 2n dilution series down to 31 µg/ml was prepared in sterile PBS. After incubation, the bacterial growth was estimated with a Photometer at 600 nm and the relative growth inhibition was calculated compared with a control without test substance. As positive control the well-studied AMP oncocin was used.
# (§2) We were intrigued by these antimicrobial signatures and sought to systematically analyze the proteome of femoral glands. To this end, we utilized the marine iguana protein database of all detected proteins, and generated a library of potential antimicrobial peptides (AMP) by in-silico sliding window digestion. Here, we generated sequence windows of 8 to 15 amino acids and resulting peptides were predicted for antimicrobial activity by a trained support vector machine (as described in the methods) (Fig. 5). […] To experimentally test the antimicrobial properties of these peptides, we determined growth rate reductions of bacterial cultures in the presence of increasing candidate peptide concentration. As positive control, we used the well-established AMP oncocin ([40]). As negative control, we have picked four peptides predicted to have no AMP activity.
# [1] = system: Escherichia coli K12 or Escherichia coli BL21; assay: Antimicrobial activity, relative growth inhibition in broth microdilution (Gram-neg.); format: cell-based; set-up: key to Activity against Gram-neg.: ++: highly active (comparable to oncocin); +: moderately active; +/-: moderately active without clear dose dependency; -: no activity; antimicrobial activity compared with oncocin: dose or concentration left out as unconfirmed; settings: for Activity against Gram-neg.: Escherichia coli in Miller-Hinton broth, inoculum 1-2 x 10^7 cfu/ml, 100 µl + 20 µl test substance, 2n dilution series from 1 mg/ml down to 31 µg/ml, 18-24 h 37 °C, photometer 600 nm, duplicates
# Experimental: as §1, §2
Substance,Activity against Gram-pos. (Bacillus subtilis),Activity against Gram-neg. [1],"dose dependent maximal growth reduction (Bacillus subtilis; B. subtilis cultures, high concentrations required, vs control without test substance, OD 600 nm)","antimicrobial activity compared with oncocin ([1]; E. coli cultures, low concentrations between 3 and 60)","dose dependent maximal growth reduction ([1]; E. coli cultures, vs control without test substance, OD 600 nm)"
"KKPLITMDEIP [Iguana-11, predicted antimicrobial peptide from marine iguana proteome, …]",++,+,,,
"AGVPRFRFGPPE [Iguana-10, predicted antimicrobial peptide from marine iguana proteome, …]",+/-,++,,,
"RLTPFVEPRY [Iguana-12, predicted antimicrobial peptide from marine iguana proteome, …]",+/-,+,,,
"VDPQKV [Iguana-08, predicted antimicrobial peptide from marine iguana proteome, VDPQKV]",,+,,,
"RGSIGGGRRGSI [Iguana-03, predicted antimicrobial peptide from marine iguana proteome, …]",+/-,-,,,
"RGQYG [Iguana-09, predicted antimicrobial peptide from marine iguana proteome, RGQYG]",,+,,,
LKVPELNV [Iguana-non-02],-,-,,,
"IIPNEDFS [Iguana-05, predicted antimicrobial peptide from marine iguana proteome, IIPNEDFS]",,-,,,
"IADPDQFVLKPQ [Iguana-15, predicted antimicrobial peptide from marine iguana proteome, …]",+/-,+,,,
"GSFPKEAIVQK [Iguana-07, predicted antimicrobial peptide from marine iguana proteome, …]",,+/-,,,
"MPKFHMPKF [Iguana-17, predicted antimicrobial peptide from marine iguana proteome, …]",++,++,,,
"VDKPPYLPRPRPPRRIYNR-NH2 [Oncocin, well-studied AMP used as positive control, …-NH2, reference compound]",++,++,,,
"GGRRGSI [Iguana-02, predicted antimicrobial peptide from marine iguana proteome, GGRRGSI]",+/-,+/-,,,
SALWVVER [Iguana-non-01],-,-,,,
NLVSVDERLV [Iguana-non-03],-,-,,,
"LPTKLDSAFIRKDPFG [Iguana-14, predicted antimicrobial peptide from marine iguana proteome, …]",+/-,+,,,
"KKLYISKGCMSKSLC [Iguana-04, predicted antimicrobial peptide from marine iguana proteome, …]",++,++,~95%,exceeded even the oncocin activity,approx. 75%
"SYFVKRPPGV [Iguana-13, predicted antimicrobial peptide from marine iguana proteome, …]",+/-,+/-,,,
"YKFYKA [Iguana-01, predicted antimicrobial peptide from marine iguana proteome, YKFYKA]",+,+,,,
"LSRPGVLERFLPDKP [Iguana-16, predicted antimicrobial peptide from marine iguana proteome, …]",+,+,,,
"LSLSRISIP [Iguana-06, predicted antimicrobial peptide from marine iguana proteome, …]",,+/-,,,
IFELDGALYR [Iguana-non-04],-,-,,,
